Where a name gives a salt, the structure may show the parent alone.
System: lipid peroxides (LPO) in rat brain homogenate
Test: Antioxidant activity (Stocks' method): inhibition of lipid peroxide formation in brain homogenate supernatant, TBA method
Type: biochemical, Male Wistar rats
Details: for Inhibition (%): rat brain homogenate supernatant, 37° C., 60 minutes, MDA by TBA method
Procedure: Several typical examples of the compound according to the invention were tested for antioxidant activity according essentially to the Stocks' method. Male Wistar rats (about 10 weeks old) were used. After perfusion for removing the blood from the brain, brain tissues were excised and homogenized in 4 weights of 0.1M phosphate-buffered saline (pH 7.4) with water cooling. The homogenate was centrifuged at 1,000×g for 10 minutes and the supernatant was used. The brain homogenate supernatant was diluted with 10 volumes of phosphate-buffered saline and 500 μl of the dilution was incubated at 37° C. for 60 minutes. The reaction was terminated by dipping the test tube into ice. After further addition 490 μl of 0.1M phosphate-buffered saline, assay was performed by the TBA method. The quantity of lipid peroxides (LPO) was expressed in terms of amount of malonedialdehyde (MDA) per milligram of protein. For protein assay, the Lowry method was used.

Row | Compound | Inhibition (%) (dose 1 × 10^-3 M) | Inhibition (%) (dose 1 × 10^-4 M) | Inhibition (%) (dose 1 × 10^-5 M) | antioxidant activity (in words) (conclusion from the test results, compared to vitamin E)
1 | CCCCCCCCCCCCCCCCCC(=O)OCC(COP(=O)(O)OC1=C(O)C(C(O)CO)OC1=O)OC(=O)CCCCCCCCCCCCCCCCC (stereo not drawn) [(1), 1,2-O-Distearoyl-3-glycerophosphoryl-ascorbic acid] | 100 | 100 | 25.7 | 
2 | CCCCCCCCCCCCCCCC(=O)OCC(COP(=O)(O)OC1=C(O)C(C(O)CO)OC1=O)OC(=O)CCCCCCCCCCCCCCC (stereo not drawn) [(2), 1,2-O-Dipalmitoyl-3-glycerophosphoryl-ascorbic acid] | 100 | 100 | 55.9 | 
3 | CCCCCCCCCCCCCCCCOCC(COP(=O)(O)OC1=C(O)C(C(O)CO)OC1=O)OCCCCCCCCCCCCCCCC (stereo not drawn) [(3), 1,2-O-Dihexadecyl-3-glycerophosphoryl-ascorbic acid] | 100 | 100 | 70.4 | 
4 | CCCCCCCCCCCC(=O)OCC(COP(=O)(O)OC1=C(O)C(C(O)CO)OC1=O)OC(=O)CCCCCCCCCCC (stereo not drawn) [(4), 1,2-O-Dilauroyl-3-glycerophosphoryl-ascorbic acid potassium salt] | 97.8 | 100 | 8.6 | 
5 | CCCCCCCCCCCC(=O)OCC(COC(=O)CCCCCCCCCCC)OP(=O)(O)OC1=C(O)C(C(O)CO)OC1=O (stereo not drawn) [(5), 1,3-O-Dilauroyl-2-glycerophosphoryl-ascorbic acid potassium salt] | 100 | 82.2 | 20.1 | 
6 | O=C1O[C@H]([C@@H](O)CO)C(O)=C1O [Ascorbic acid, reference compound] | -22.9 | -28.6 |  | rather promoted oxidation
7 | Vitamin E [reference compound] | 94.3 | 62.9 | 28.6 | 

Reference: patent US5098898A, “Phospholipid derivatives” (Senju Pharmaceutical Co., Ltd., priority 1989, dated 1992)
